# Read-outs that look alike come from different tables or passages of the source.
# Experiments:
# Assay in all cases: Measurement of antifungal activity (minimum inhibitory concentration), agar dilution
# Type in all cases: cell-based
# [1] = test system: M. canis TIMM0760; settings: Microsporum canis, 168 h, Sabouraud's agar, one week at 27° C., read-out: MIC value (minimum compound concentration that definitely inhibited any visible growth)
# Protocol: (§1) Measurement of Antifungal Activity (Measurement of Minimum Inhibitory Concentration)
# (§2) Antifungal activity of representative compounds of the present invention against dermatophytes was investigated.
# (§3) Briefly, strains of dermatophytes to be tested were grown on slant media prepared with Sabouraud's agar (product of Nissuiseiyaku; pepton 1.0%, glucose 4.0%, agar 1.5%, pH 5.9) at 27° C. for two weeks, so as to allow sufficient production of conidiospores. Subsequently, sterilized saline solution containing 0.05% (wt/vol) TWEEN 80 was added thereto, and while the surface of the each medium was scraped with a platinum loop, the conidiospores were deaggregated and suspended in the saline solution. The suspension was filtered through a double face sterilized gauze sheet so as to remove agar and hypha pellets. The filtrate was diluted with a saline solution so as to make the concentration of the conidiospores decrease to 10^6/ml by use of a cytometer, and the resultant dilute filtrate served as a test dermatophytes solution. Meanwhile, a stock solution was prepared by adding 1 ml of dimethylsulfoxide to 10 mg of a compound to be tested. An aliquot (500 μl) of the stock solution was combined with dimethylsulfoxide (500 μl), to thereby prepare a 2-fold dilute solution. Dilution was similarly repeated until 13 different dilute solutions ranging from 10 to 0.0025 mg/ml (concentrations of the ultimate test system: 100-0.025 μg/ml) were obtained. 100 μl each of the diluted solutions of the test compound was dispensed into the sterilized petri dish. A Sabouraud's agar (pepton 1.0%, glucose 4.0%, agar 1.5%, pH 5.9; 10 ml), which had been sterilized and dissolved, was added thereto, and the mixture was thoroughly mixed and solidified. Next, the above-prepared test dermatophytes solution was planted in amounts of 5 μl by use of a microplanter.
# [2] = test system: M. gypseum IF08231; settings: Nannizzia gypsea, 168 h, Sabouraud's agar, one week at 27° C., read-out: MIC value (minimum compound concentration that definitely inhibited any visible growth)
# Protocol: as §1, §2, §3
# [3] = test system: T. mentagrophytes IF05811; settings: Trichophyton mentagrophytes, 168 h, Sabouraud's agar, one week at 27° C., read-out: MIC value (minimum compound concentration that definitely inhibited any visible growth)
# Protocol: as §1, §2, §3
# [4] = test system: T. mentagrophytes IF07552; settings: Trichophyton mentagrophytes, 168 h, Sabouraud's agar, one week at 27° C., read-out: MIC value (minimum compound concentration that definitely inhibited any visible growth)
# Protocol: as §1, §2, §3
# [5] = test system: T. mentagrophytes TIMM1177; settings: Trichophyton mentagrophytes, 168 h, Sabouraud's agar, one week at 27° C., read-out: MIC value (minimum compound concentration that definitely inhibited any visible growth)
# Protocol: as §1, §2, §3
# [6] = test system: T. mentagrophytes TIMM1189; settings: Trichophyton mentagrophytes, 168 h, Sabouraud's agar, one week at 27° C., read-out: MIC value (minimum compound concentration that definitely inhibited any visible growth)
# Protocol: as §1, §2, §3
# [7] = test system: T. rubrum IF05808; settings: Trichophyton rubrum, 168 h, Sabouraud's agar, one week at 27° C., read-out: MIC value (minimum compound concentration that definitely inhibited any visible growth)
# Protocol: as §1, §2, §3
# [8] = test system: T. rubrum IF09185; settings: Trichophyton rubrum, 168 h, Sabouraud's agar, one week at 27° C., read-out: MIC value (minimum compound concentration that definitely inhibited any visible growth)
# Protocol: as §1, §2, §3
# [9] = test system: T. violaceum TIMM1264; settings: Trichophyton violaceum, 168 h, Sabouraud's agar, one week at 27° C., read-out: MIC value (minimum compound concentration that definitely inhibited any visible growth)
# Protocol: as §1, §2, §3
MIC [1] [µg/mL],MIC ([2]; M. gypseum IF08231 (Table 2)) [µg/mL],MIC [3] [µg/mL],MIC [4] [µg/mL],MIC [5] [µg/mL],MIC [6] [µg/mL],MIC [7] [µg/mL],MIC [8] [µg/mL],MIC [9] [µg/mL],MIC ([2]; H. gypseum IF08231 (Table 1)) [µg/mL],Structure (SMILES)
0.2,3.12,1.56,0.78,0.78,0.78,0.39,0.39,0.78,–,"C=C(CC)c1cccc(CN(C)Cc2ccc(C(C)(C)C)cc2)c1.Cl [Compound 95, N-(4-tert-Butylbenzyl)-N-methyl-[3-(1-ethylvinyl)benzyl]amine Hydrochloride]"
6.25,–,6.25,6.25,6.25,6.25,3.12,3.12,12.5,12.5,"C=C(C)c1ccccc1CN(C)C/C=C/C#CC(C)(C)C.Cl [Compound 39, trans-N-(6,6-Dimethyl-2-hepten-4-ynyl)-N-methyl-(2-isopropenylbenzyl)amine Hydrochloride]"

# The remaining lines, values behind:
Structure (SMILES),MIC [1] [µg/mL],MIC ([2]; M. gypseum IF08231 (Table 2)) [µg/mL],MIC [3] [µg/mL],MIC [4] [µg/mL],MIC [5] [µg/mL],MIC [6] [µg/mL],MIC [7] [µg/mL],MIC [8] [µg/mL],MIC [9] [µg/mL],MIC ([2]; H. gypseum IF08231 (Table 1)) [µg/mL]
"C=C(C)c1cccc(CN(C)CC=Cc2ccccc2)c1.Cl [Compound 48, N-Cinnamyl-N-methyl-(3-isopropenylbenzyl)amine Hydrochloride]",1.56,–,6.25,3.12,6.25,6.25,1.56,1.56,6.25,6.25
"C=C(CC)c1cccc(CN(C)C/C=C/C#CC(C)(C)C)c1.Cl [Compound 25, trans-N-(6,6-Dimethyl-2-hepten-4-ynyl)-N-methyl-[3-(1-ethylvinyl)benzyl]amine Hydrochloride]",0.39,–,0.78,0.78,0.78,0.78,0.78,0.78,0.78,3.12
"C=C(C)c1cc(CN(C)Cc2ccc(C(C)(C)C)cc2)ccc1C.Cl [Compound 126, N-(4-tert-Butylbenzyl)-N-methyl-(3-isopropenyl-4-methylbenzyl)amine Hydrochloride]",1.56,6.25,12.5,3.12,12.5,3.12,3.12,3.12,3.12,–
